The target of one test is GSK3β kinase (Homo sapiens (Human), UniProt P49841). The test is described as follows: GSK3β kinase assay (Ser/Thr 09 peptide Z-lyte, FRET).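 Also: Coumarin/fluorescein emission ratio converted to percent phosphorylation against unphosphorylated (0%) and phosphorylated (100%) controls, 1 h compound incubation at room temperature, 11-point threefold dilutions from 10 µM, run in duplicate.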 The class given is biochemical. The following applies: method text calls the value IC50.
Test [1] relates to Wnt activity (Sp5-Luc reporter in SW480 colon carcinoma cells). Briefly: Wnt activity screening assay (Sp5-Luc reporter gene assay). The class given is cell-based, human. The conditions noted are these: Homo sapiens; for pEC50: Sp5-Luc reporter, SW480 cells, 36 to 48 hours; for inhibition at 10 µM: SW480, read-out: percent inhibition at 10 μM. In a few lines: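 SW480 cells stably carrying an Sp5 promoter (eight TCF/LEF sites)-firefly luciferase reporter were plated in DMEM with 1% FBS and treated with a 10-point, 1:3 dilution series from 10 μM (0.1% DMSO) for 36 to 48 h at 37° C. Luminescence was normalized to DMSO controls, and EC50 came from four-parameter nonlinear regression.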

A further test deals with IL-6. The test is described as follows: IL-6 inhibition in LPS-stimulated human peripheral blood mononuclear cells (HTRF). The conditions noted are these: Homo sapiens, PBMC; for pEC50: IL-6, LPS-stimulated huPBMCs, HTRF; for inhibition at 10 µM: read-out: percent value in parentheses below EC50 >10. The class given is cell-based. In outline:
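Fresh human PBMCs (5000 cells/well, 1% FBS RPMI) preincubated with compound (10-point 1:3 series from 10 μM, 0.25% DMSO) 2 h at 37 °C, then stimulated with 50 ng/mL E. coli LPS for 22 h. IL-6 by HTRF 665/620 ratio; DMSO-normalized, EC50 from 4-parameter fit.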

Test [2] concerns LL29 cells (primary human fibroblasts derived from IPF patients), α-smooth muscle actin. The test is described as follows: Inhibition of fibrotic process: αSMA in TGF-β1-treated primary human fibroblasts from IPF patients (LL29 cells). The class given is cell-based. The conditions noted are these: Homo sapiens, Fibroblast; for pEC50: 96 h, % αSMA-positive LL29 cells, TGF-β1 20 ng/mL, 4 days; for inhibition at 10 µM: read-out: percent inhibition at 10 μM. In a few lines: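 IPF-patient lung fibroblasts (LL29) were stimulated with TGF-β1 (20 ng/mL) in 1% FBS medium with compound (11-point 1:2 series, 0.1% DMSO) for 4 days at 37 °C. Fixed cells were immunostained for αSMA and imaged, excluding SYTOX-positive dead cells. The % αSMA-positive cells was normalized to TGF-β1/DMSO control wells.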

Test [3] deals with Tau phosphorylation at Ser396 (pSer396), SH-SY5Y cells. The test is described as follows: Tau phosphorylation at Ser396 (pSer396) in SH-SY5Y cells, ELISA/western blot.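 Also: cell lysates probed for reduced Tau pSer396 via ELISA (colorimetric) or western blot (chemiluminescence), both with one shared pSer396 antibody, EC50 for lowering phosphorylation.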 The class given is cell-based, human. The conditions noted are these: Homo sapiens; SH-SY5Y cells, overnight (16-18 h); read-out: pSer396 Tau EC50. A general note: An ELISA detects its analyte on a solid surface through an enzyme-linked reagent.
Experimental: Two days before treatment, cells were seeded onto 96 well plates at 5×10^4 cells/well.
Wells were visually checked for cell death or change in morphology and supernatants were tested for cytotoxicity by measurement of lactate dehydrogenase release (LDH, CytoToxOne kit, Promega) if necessary.
Cells were lysed with RIPA buffer complemented with phosphatase and protease inhibitors then lysates were spun down at 12,000 g for 10 min to remove any cellular debris. Lysates are then either directly tested for pSer396 by ELISA (Life Technology, Kit KHB7031) or loaded on NuPage Bis-Tris gels for western blot analysis. Colorimetric detection of ELISA signal is performed by Cytation3 plate reader (Biotek) and the chemiluminescence signal for HRP-linked antibodies used in western blotting is detected using a Carestream Image Station. The same pSer396 antibody is used for detection of pTau in both assays.

For test [4], the system named is SW480 colon carcinoma cells. The test is described as follows: Cell viability assay (CellTiter-Glo) in SW480 cells.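 As to all read-outs here: SW480 cells stably carrying an Sp5-luciferase TCF/LEF reporter, luminescent ATP signal as viability measure, DMSO-treated cells as control.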 It is filed as cell-based, human. The conditions noted are these: Homo sapiens; for pEC50: 96 h, cell viability, SW480 cells, four days, CellTiter-Glo; for inhibition at 10 µM: SW480, read-out: percent inhibition at 10 μM.
The target of the next test is DYRK1A kinase (Homo sapiens (Human), UniProt Q13627). The test is described as follows: DYRK1A kinase assay (Ser/Thr 18 peptide Z-lyte, FRET).
[5] abbreviates: DYRK1A kinase, method text calls the value IC50.

The pEC50 is the EC50 on a negative log10 scale, so that one unit is a factor of ten.

pEC50: −log10 of the molar value. Like-named read-outs stand apart in the source and are kept apart here. Some results are limits rather than exact numbers.

GSK3β kinase, sequence (P49841 whole entry): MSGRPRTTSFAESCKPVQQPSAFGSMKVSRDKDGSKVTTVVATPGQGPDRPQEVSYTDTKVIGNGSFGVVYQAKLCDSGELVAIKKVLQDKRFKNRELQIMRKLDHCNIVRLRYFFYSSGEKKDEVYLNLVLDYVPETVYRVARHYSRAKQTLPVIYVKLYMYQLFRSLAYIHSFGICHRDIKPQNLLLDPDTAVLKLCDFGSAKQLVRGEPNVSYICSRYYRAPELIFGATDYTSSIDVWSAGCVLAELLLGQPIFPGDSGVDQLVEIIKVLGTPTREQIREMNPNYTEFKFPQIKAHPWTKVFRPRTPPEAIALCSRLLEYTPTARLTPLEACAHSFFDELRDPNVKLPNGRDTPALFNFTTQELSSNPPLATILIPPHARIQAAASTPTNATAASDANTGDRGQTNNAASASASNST
Experimental for DYRK1A kinase: Each compound was dissolved in DMSO as a 10 mM stock and used to prepare compound source plates.
This is a non-radioactive assay using fluorescence resonance energy transfer (FRET) between coumarin and fluorescein to detect kinase activity which is represented as a ratio of coumarin emission/fluorescein emission.
The mixture was allowed to incubate with the representative compounds for one hour at room temperature. All reactions were performed in duplicate. Unphosphorylated (“0% Control”) and phosphorylated (“100% control”) forms of Ser/Thr 18 served as control reactions. Additionally, an 11-point dose-response curve of Staurosporine (1 uM top) was run to serve as a positive compound control.
After incubation, Development Reagent A was diluted in Development Buffer then added to the reaction and allowed to further incubate for one hour at room temperature.
The percent phosphorylation was then calculated using the following formula: [1−((Em ratio×F100%)−C100%)/((C0%−C100%)+(Em ratio×(F100%−F0%)))]. Dose-response curves were generated and inhibitory concentration (IC50) values were calculated using non-linear regression curve fit in the Dotmatics' Studies Software (Bishops Stortford, UK).
Experimental for GSK3β kinase: Representative compounds were screened using the assay procedure for GSK30 kinase activity as described below.
Each compound is dissolved in DMSO as a 10 mM stock and used to prepare compound source plates. Serial dilution (1:3, 11-point dose-response curves from 10 M to 0.0003 μM) and compound transfer was performed using the ECHO 550 (Labcyte, Sunnyvale, Calif.) into 1536-well black-walled round bottom plates (Corning).
This is a non-radioactive assay using fluorescence resonance energy transfer (FRET) between coumarin and fluorescein to detect kinase activity which is represented as ratio of coumarin emission/fluorescein emission.
The mixture is allowed to incubate with the representative compounds for one hour at room temperature. All reactions were performed in duplicate. Unphosphorylated (“0% Control”) and phosphorylated (“100% control”) forms of Ser/Thr 18 serve as control reactions.
After incubation, diluted Development Buffer is added to the reaction and allowed to further incubate for one hour at room temperature.
The percent phosphorylation is then calculated using the following formula: [1−((Em ratio×F100%)−C100%)/((C0%−C100%)+(Em ratio×(F100%−F0%)))].
Dose-response curves are generated and inhibitory concentration (IC50) values are calculated using non-linear regression curve fit in the Dotmatics' Studies Software (Bishops Stortford, UK).

With `[2H]c1c(NC(=O)C2CCN(C)CC2)ncc2ccc(-c3nnc(C)s3)cc12` [Compound 134, 1-Methyl-N-(6-(5-methyl-1,3,4-thiadiazol-2-yl)isoquinolin-3-yl-4-d) piperidine-4-carboxamide], the pEC50 at GSK3β kinase is 7.72; in test [1] it was 6.23; in the test with IL-6, 5.15; in test [2], 6.24; in test [3], 7.03; in test [4], 5.56. The same compound showed a negative logarithm of the EC50 (pEC50) on DYRK1A kinase of 8.22.
Consider `[2H]c1c(NC(=O)CN2CCOCC2)ncc2ccc(-c3nnc(C)s3)cc12` [Compound 135, N-(6-(5-Methyl-1,3,4-thiadiazol-2-yl)isoquinolin-3-yl-4-d)-2-morpholinoacetamide], for which the negative-log EC50 (pEC50) was 7.66 at GSK3β kinase; 5.25 in test [1]; less than 5.00 in the test on IL-6; 5.67 in test [2]; 6.44 in test [3]; less than 5.00 in test [4]. This compound gave a pEC50 at DYRK1A kinase of 7.39. Also, the inhibition at 10 µM in the test with IL-6 amounted to 0%; in test [4], 27.8%.
Turning to `[2H]c1c(NC(=O)C2CCN(C)CC2)ncc2ccc(-c3cnc(C)o3)cc12` [Compound 136, 1-Methyl-N-(6-(2-methyloxazol-5-yl)isoquinolin-3-yl-4-d)piperidine-4-carboxamide], the pEC50 at GSK3β kinase was 7.10; in test [1], 5.68; with IL-6, 6.33; in test [2], 6.38; in test [3] it was 6.51; in test [4], 5.95. Besides, the pEC50 on DYRK1A kinase was 8.22.
`[2H]c1c(NC(=O)CN2CCOCC2)ncc2ccc(-c3cnc(C)o3)cc12` [Compound 137, N-(6-(2-Methyloxazol-5-yl)isoquinolin-3-yl-4-d)-2-morpholinoacetamide]: the negative-log EC50 (pEC50) on GSK3β kinase is 7.17; in test [1], less than 5.00; with IL-6 it was 5.64; in test [2], 5.50; in test [3], 6.24; in test [4], less than 5.00. The negative-log EC50 (pEC50) at DYRK1A kinase was 7.74. The inhibition at 10 µM in test [1] stood at 38.5%; in test [4], 39%.
For the compound `[2H]C([2H])([2H])C(N[C@H]1CCN(C(=O)Nc2cc3cc(-c4nnc(C)s4)ccc3cn2)C[C@@H]1F)C([2H])([2H])[2H]` [Compound 139, (3S,4S)-3-Fluoro-N-(6-(5-methyl-1,3,4-thiadiazol-2-yl)isoquinolin-3-yl)-4-((propan-2-yl-1,1,1,3,3,3-d6)amino)piperidine-1-carboxamide], the negative-log EC50 (pEC50) at GSK3β kinase was 7.48; in test [1], 5.55; in the test with IL-6 it was less than 5.00; in test [2], 5.63; in test [3], 5.85; in test [4] it was 5.13. Besides, the negative-log EC50 (pEC50) on DYRK1A kinase was 7.66. The inhibition at 10 µM in the test on IL-6 turned out to be 6.6%.
For `[2H]C1([2H])OC([2H])([2H])C([2H])([2H])N(C(=O)Nc2cc3cc(-c4cnc(C)n4C)ccc3cn2)C1([2H])[2H]` [Compound 143, N-(6-(1,2-Dimethyl-1H-imidazol-5-yl)isoquinolin-3-yl)morpholine-d8-4-carboxamide], the negative logarithm of the EC50 (pEC50) was 5.75 on GSK3β kinase; 5.53 in test [1]; less than 5.00 in the test with IL-6; less than 5.00 in test [2]; 5.14 in test [3]; 5.47 in test [4]. On DYRK1A kinase, this compound showed a pEC50 of 7.96. Besides, the inhibition at 10 µM is 5.7% in the test on IL-6 and 40.4% in test [2].
Turning to `[2H]C([2H])([2H])N([C@H]1CC[C@H](C(=O)Nc2cc3cc(-c4cnc(C)o4)ccc3cn2)CC1)C([2H])([2H])[2H]` [Compound 144, trans-4-(Bis(methyl-d3)amino)-N-(6-(2-methyloxazol-5-yl)isoquinolin-3-yl) cyclohexane-1-carboxamide], the pEC50 is 7.68 at GSK3β kinase; less than 5.00 in test [1]; less than 5.00 in the test on IL-6; 5.86 in test [2]; less than 5.00 in test [3]; 5.42 in test [4]. In addition, the pEC50 on DYRK1A kinase was 7.70. In addition, the values for the inhibition at 10 µM (in test [1]; in the test on IL-6) were 35.8% and 14.3%, respectively.
For `[2H]C([2H])([2H])N([C@H]1CC[C@H](C(=O)Nc2cc3cc(-c4cnn(C)c4)ccc3cn2)CC1)C([2H])([2H])[2H]` [Compound 145, trans-4-(Bis(methyl-d3)amino)-N-(6-(1-methyl-1H-pyrazol-4-yl)isoquinolin-3-yl)cyclohexane-1-carboxamide], the negative logarithm of the EC50 (pEC50) was 7.10 at GSK3β kinase; 5.74 in test [1]; 6.43 in the test with IL-6; 7.14 in test [2]; 6.30 in test [3]; 5.83 in test [4]. Further, the negative-log EC50 (pEC50) at DYRK1A kinase was 8.70.
Regarding `Cc1nnc(-c2ccc3cnc(NC(=O)N4CCN(C(C)C)CC4)cc3c2)s1` [Compound 146, 4-Isopropyl-N-(6-(5-methyl-1,3,4-thiadiazol-2-yl)isoquinolin-3-yl) piperazine-1-carboxamide], the pEC50 was 7.21 at GSK3β kinase; 5.51 in test [1]; less than 5.00 in the test on IL-6; less than 5.00 in test [2]; 6.00 in test [3]; 5.42 in test [4]. For the same compound, the pEC50 on DYRK1A kinase (setting [5]) is 7.66. Further, the inhibition at 10 µM in the test with IL-6 is 2.1%; in test [2], 35.1%.
As to `Cc1nnc(-c2ccc3cnc(NC(=O)N4CCC(NCCC(F)(F)F)CC4)cc3c2)s1` [Compound 147, N-(6-(5-Methyl-1,3,4-thiadiazol-2-yl)isoquinolin-3-yl)-4-((3,3,3-trifluoropropyl)amino)piperidine-1-carboxamide], the pEC50 on GSK3β kinase was 7.43; in test [1], 5.48; with IL-6, less than 5.00; in test [2], 5.78; in test [3], 5.96; in test [4], 5.38. This compound gave a negative-log EC50 (pEC50) at DYRK1A kinase (setting [5]) of 7.74. Further, the inhibition at 10 µM with IL-6 worked out at 36.8%.
`Cc1ncc(-c2ccc3cnc(NC(=O)[C@H]4CC[C@H](NCCC(F)(F)F)CC4)cc3c2)o1` [Compound 148, trans-N-(6-(2-Methyloxazol-5-yl)isoquinolin-3-yl)-4-((3,3,3-trifluoropropyl)amino)cyclohexane-1-carboxamide]: the pEC50 at GSK3β kinase is 6.59; in test [1] it was 5.46; with IL-6, 6.38; in test [2], 6.54; in test [3], 6.22; in test [4], 5.92. This compound gave a negative-log EC50 (pEC50) on DYRK1A kinase (setting [5]) of 7.85.
Turning to `Cc1ncc(-c2ccc3cnc(NC(=O)[C@H]4CC[C@H](N)CC4)cc3c2)o1` [Compound 149, trans-4-amino-N-(6-(2-methyloxazol-5-yl)isoquinolin-3-yl)cyclohexane-1-carboxamide], the pEC50 on GSK3β kinase is 6.89; in test [1], 5.85; in the test with IL-6, 6.42; in test [2] it was 6.67; in test [3], 5.96; in test [4] it was 5.87. Besides, the pEC50 on DYRK1A kinase (setting [5]) is 8.15.
